The DC50 is the midpoint of the concentration-degradation curve. As a reminder, the IC50 is the concentration at which inhibition is half-maximal.

9 compounds from patent publication US20260049072A1, “HETEROCYCLIC COMPOUND FOR INDUCING DEGRADATION OF MUTANT KRAS PROTEIN” (Astellas Pharma Inc., priority 2022, published 2026) can be followed below.

In one experiment the target is T1, RAS G12V (Homo sapiens, UniProt P01116, G12V).
T1 construct: host or cells: PA-TU-8902 human pancreatic cancer cells
Briefly: RAS G12V degradation activity, Cell ELISA, PA-TU-8902. The format is cell-based. The settings on record: PA-TU-8902 cells, 24 hours, 100% = Example compound 17 at 1 μM; read-out: DC50 (RAS G12V 50% degradation value). Here is the method:
Test Example 1-1: Evaluation of RAS G12V Degradation Activity on Human KRAS G12V Mutant-Positive Pancreatic Cancer Line PA-TU-8902
The RAS G12V degradation activities of subject compounds were evaluated by measuring the expression levels of RAS G12V by a Cell ELISA method.
PA-TU-8902 cells (DSMZ, ACC 179) were seeded at 36 μL per well on a 384-well plate (from Greiner bio-one) to give 1.5×10^4 cells per well. As for the cell culture conditions, DMEM medium (from Sigma-Aldrich) containing 10% fetal bovine serum (from Cytiva) was used in the presence of 5% CO2 at 37° C.
The next day, the subject compounds (10 points having final concentrations in the range of 3 μM to 0.1 nM), Example compound 17 of a final concentration of 1 μM as a positive control and dimethyl sulfoxide (DMSO), which was the solvent for the subject compounds, as a negative control were diluted 100-fold with a fresh medium and were each added at 4 μL per well, followed by culturing for 24 hours.
The next day, the culture supernatant was removed, and a 4% paraformaldehyde phosphate buffer solution (from FUJIFILM Wako) was added at 20 μL per well. The plate was allowed to stand for 30 minutes at room temperature to thus immobilize the cells. Then, the supernatant was removed, and 0.1% Triton X-100 (from Amersham Biosciences)-containing Phosphate buffered saline (PBS) was added at 20 μL per well. After allowing the plate to stand at room temperature for 10 minutes, the supernatant was removed, and the wells were washed twice in total by adding PBS at 25 μL per well and removing the supernatant. The washing operations below were performed in the same manner. Next, the supernatant was removed, and 0.5% sodium dodecyl sulfate (SDS; from ThermoFisher Scientific)-containing PBS was added at 20 μL per well. After allowing the plate to stand at room temperature for 10 minutes, the plate was centrifuged to remove the supernatant. After washing with PBS, the supernatant was removed by centrifugation, and a blocking solution (PVDF Blocking Reagent for Can Get Signal; from TOYOBO) was added at 20 μL per well. After allowing the plate to stand for 30 minutes at room temperature, the supernatant was removed by centrifugation, and a solution obtained by diluting an anti-Ras (G12V Mutant Specific) antibody (Ras (G12V Mutant Specific) (D2H12) Rabbit mAb; from Cell Signaling Technology; 500-fold dilution) and an anti-3-actin antibody (Anti-beta Actin antibody; from Abcam; 5,000-fold dilution) with Can Get Signal Solution 2 (from TOYOBO) was added at 15 μL per well as primary antibodies. The plate was allowed to stand overnight at 4° C.
The next day, the supernatant was removed by centrifugation, and the plate was washed with PBS. The supernatant was removed by centrifugation, and a solution obtained by diluting an anti-rabbit IgG antibody (IRDye 800CW Goat anti-Rabbit IgG; from LI-COR Biosciences) and an anti-mouse IgG antibody (IRDye 680RD Donkey anti-Mouse IgG; from LI-COR Biosciences) 1,000-fold with Can Get Signal Solution 2 was added at 15 μL per well as secondary antibodies. After allowing the plate to stand at room temperature for an hour, the supernatant was removed by centrifugation, and the plate was washed with PBS. After removing the supernatant, the plate was dried as it was with air at room temperature for two hours or more, and the 700-nm and 800-nm fluorescent signals were measured with Aerius (from LI-COR Biosciences).
With the RAS G12V signaling value at the time of addition of DMSO corrected with the signaling value of 3-actin taken as 0% and with the RAS G12V signaling value at the time of addition of Example compound 17 of a final concentration of 1 μM taken as 100%, the RAS G12V degradation rates were calculated. The 50% degradation values (DC50) were calculated by Sigmoid-Emax model nonlinear regression analysis.

The next experiment concerns PA-TU-8902 cells. Briefly: Non-anchorage-dependent cell growth inhibition (spheroid 3D culture), PA-TU-8902. In kind it is cell-based, human. The settings on record: Homo sapiens, PaTu 8902, 144 h, read-out: PA-TU-8902 IC50. Here is the method:
(§1) Test Example 3: Evaluation of Non-Anchorage-Dependent Cell Growth Inhibitory Activity on Human KRAS G12V Mutant-Positive Pancreatic Cancer Line PA-TU-8902, Human KRAS G12D Mutant-Positive Pancreatic Cancer Line AsPC-1 or Human KRAS G12C Mutant-Positive Pancreatic Cancer Line MIA PaCa-2
(§2) The non-anchorage-dependent cell growth inhibitory activities of subject compounds were evaluated by spheroid 3D cell culture.
(§3) PA-TU-8902 cells, AsPC-1 cells or MIA PaCa-2 cells (RIKEN BRC, RCB2094) were seeded at 36 µL/well on a low-cell-adhesive round bottom 384-well plate (Prime Surface: from Sumitomo Bakelite) to give 5×10^2 cells per well. The PA-TU-8902 cells were under the same conditions as in Test Example 1-1, and the AsPC-1 cells were under the same conditions as in Test Example 1-2. For the MIA PaCa-2 cells, RPMI-1640 medium containing 10% fetal bovine serum was used in the presence of 5% CO2 at 37° C.
(§4) The next day, the subject compounds (6-9 points having final concentrations in the range of 3 μM to 0.3 nM) and DMSO, which was the solvent for the subject compounds, as a negative control were diluted 100-fold with a fresh medium and were each added at 4 μL per well. After culturing in the presence of 5% CO2 at 37° C. for six days, CellTiter-Glo 2.0 (from Promega) was added at 20 μL per well. After stirring with a plate mixer (from FINEPCR) at normal temperature for an hour, the luminescent signals were measured with ARVO X3 (from PerkinElmer).
(§5) With the signaling value in treatment with DMSO taken as 0% inhibition and with the signaling value in the medium alone without cells taken as 100% inhibition, the 50% inhibition values (IC50) were calculated by Sigmoid-Emax model nonlinear regression analysis.

The test system of the next experiment is AsPC-1 cells. Put plainly: Non-anchorage-dependent cell growth inhibition (spheroid 3D culture), AsPC-1. In kind it is cell-based. The note with it: Homo sapiens, ASPC1, 144 h, read-out: AsPC-1 IC50. Here is the method:
as §1, §2, §3, §4, §5

The mark [1] stands for this setting: KRAS G12V mutant-positive, 3D spheroid, six days, CellTiter-Glo 2.0.
[2] abbreviates: KRAS G12D mutant-positive, 3D spheroid, six days, CellTiter-Glo 2.0.

Read-outs that look alike come from different tables or passages of the source.

T1 sequence (P01116 1-188 isoform P01116-2 G12V): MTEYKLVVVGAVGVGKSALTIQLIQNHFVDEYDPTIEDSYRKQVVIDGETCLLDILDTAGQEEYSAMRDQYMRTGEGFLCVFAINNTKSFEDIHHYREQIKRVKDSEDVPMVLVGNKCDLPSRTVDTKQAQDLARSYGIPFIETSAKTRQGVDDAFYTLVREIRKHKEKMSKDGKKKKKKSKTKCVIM

As for `Cc1ncsc1-c1ccc([C@H](CO)NC(=O)[C@@H]2C[C@@H](O)CN2C(=O)[C@H](C(C)C)n2cc(-c3ccc(COc4c(-c5c(C)c(F)cc6[nH]ncc56)c(C5CC5)cc5c(N6CC[C@H]6C(N)=O)nc(OC6CCOCC6)nc45)cc3)nn2)cc1` [Example 35], the DC50 at RAS G12V was 23 nM. For the same compound, the IC50 is 32 nM in the experiment on PA-TU-8902 cells (setting [1]) and 10 nM in the experiment on AsPC-1 cells (setting [2]).
`CO[C@@H](C)COc1nc(NC2CN(C(=O)O[C@H]3C[C@@H](N(C)C)C3)C2)c2cc(C3CC3)c(-c3c(C)c(F)cc4[nH]ncc34)c(OCc3ccc(-c4cn([C@H](C(=O)N5C[C@H](O)C[C@H]5C(=O)N[C@@H](CO)c5ccc(N6CCOC6=O)cc5)C(C)C)nn4)cc3)c2n1` (atropisomer, axis not shown) [Example 4]: the half-maximal degradation concentration (DC50) at RAS G12V came out at 45 nM. The IC50 in the experiment with PA-TU-8902 cells (setting [1]) amounted to 72 nM; in the experiment on AsPC-1 cells (setting [2]), 38 nM.
For `CO[C@@H](C)COc1nc(NC2CN(C(=O)O[C@H]3C[C@@H](N(C)C)C3)C2)c2cc(C3CC3)c(-c3c(C)c(F)cc4[nH]ncc34)c(OCc3ccc(-c4cn([C@H](C(=O)N5C[C@H](O)C[C@H]5C(=O)N[C@@H](CO)c5ccc(-n6cncn6)cc5)C(C)C)nn4)cc3)c2n1` (atropisomer, axis not shown; (M)) [Example 2, (1s,3R)-3-(dimethylamino)cyclobutyl 3-({(7M)-6-cyclopropyl-7-(6-fluoro-5-methyl-1H-indazol-4-yl)-8-{[4-(1-{(2S)-1-[(2S,4R)-4-hydroxy-2({(1R)-2-hydroxy-1-[4-(1H-1,2,4-triazol-1-yl)phenyl]ethyl}carbamoyl)pyrrolidin-1-yl]-3-methyl-1-oxobutan-2-yl}-1H-1,2,3-triazol-4-yl)phenyl]methoxy}-2-[(2S)-2-methoxypropoxy]quinazolin-4-yl}amino)azetidine-1-carboxylate] the same measures were 18 nM, 33 nM and 11 nM.
For `Cc1ncsc1-c1ccc([C@H](CO)NC(=O)[C@@H]2C[C@@H](O)CN2C(=O)[C@H](C(C)C)n2cc(-c3ccc(COc4c(-c5c(C)c(F)cc6[nH]ncc56)c(C5CC5)cc5c(NCc6cccnc6)nc(OC6CCOCC6)nc45)cc3)nn2)cc1` [Example 29] the same measures were 8 nM, 63 nM and 25 nM.
With `CO[C@@H](C)COc1cc(OC2CN(C(=O)CCCN(C)C)C2)c2cc(C3CC3)c(-c3c(C)c(F)cc4[nH]ncc34)c(OCc3ccc(-c4cn([C@H](C(=O)N5C[C@H](O)C[C@H]5C(=O)N[C@@H](CO)c5ccc(-n6cncn6)cc5)C(C)C)nn4)cc3)c2n1` (atropisomer, axis not shown; (M)) [Example 41, (4R)-1-[(2S)-2-(4-{4-[({(7M)-6-cyclopropyl-4-({1-[4-(dimethylamino)butanoyl]azetidin-3-yl}oxy)-7-(6-fluoro-5-methyl-1H-indazol-4-yl)-2-[(2S)-2-methoxypropoxy]quinolin-8-yl}oxy)methyl]phenyl}-1H-1,2,3-triazol-1-yl)-3-methylbutanoyl]-4-hydroxy-N-{(1R)-2-hydroxy-1-[4-(1H-1,2,4-triazol-1-yl)phenyl]ethyl}-L-prolinamide], the DC50 at RAS G12V turned out to be 30 nM. Besides, the IC50 turned out to be 52 nM with PA-TU-8902 cells (setting [1]) and 29 nM in the experiment with AsPC-1 cells (setting [2]).
For `CO[C@@H](C)COc1nc(NC2CN(C(=O)O[C@H]3C[C@@H](N(C)C)C3)C2)c2cc(C3CC3)c(-c3c(C)c(F)cc4[nH]ncc34)c(OCc3ccc(-c4cn([C@H](C(=O)N5C[C@H](O)C[C@H]5C(=O)N[C@@H](CO)c5ccc(-c6scnc6C)cc5)C(C)C)nn4)cc3)c2n1` (atropisomer, axis not shown; (M)) [Example 11, (1s,3R)-3-(dimethylamino)cyclobutyl 3-({(7M)-6-cyclopropyl-7-(6-fluoro-5-methyl-1H-indazol-4-yl)-8-{[4-(1-{(2S)-1-[(2S,4R)-4-hydroxy-2-({(1R)-2-hydroxy-1-[4-(4-methyl-1,3-thiazol-5-yl)phenyl]ethyl}carbamoyl)pyrrolidin-1-yl]-3-methyl-1-oxobutan-2-yl}-1H-1,2,3-triazol-4-yl)phenyl]methoxy}-2-[(2S)-2-methoxypropoxy]quinazolin-4-yl}amino)azetidine-1-carboxylate] the same measures were 13 nM, 45 nM and 11 nM.
As for `CNCCNC(=O)N1CC(Oc2nc(OC[C@H](C)OC)nc3c(OCc4ccc(-c5cn([C@H](C(=O)N6C[C@H](O)C[C@H]6C(=O)N[C@@H](CO)c6ccc(-c7scnc7C)cc6)C(C)C)nn5)cc4)c(-c4c(C)c(F)cc5[nH]ncc45)c(C4CC4)cc23)C1` (atropisomer, axis not shown) [Example 18], on RAS G12V, the DC50 is 69 nM. Moreover, the results for the IC50 in the experiment with PA-TU-8902 cells (setting [1]) and with AsPC-1 cells (setting [2]) were 69 nM and 32 nM, respectively.
As to `CO[C@@H](C)COc1nc(N2CC(C#N)C2)c2cc(C3CC3)c(-c3c(C)c(F)cc4[nH]ncc34)c(OCc3ccc(-c4cn([C@H](C(=O)N5C[C@H](O)C[C@H]5C(=O)N[C@@H](CO)c5ccc(-c6scnc6C)cc5)C(C)C)nn4)cc3)c2n1` (atropisomer, axis not shown) [Example 20], on RAS G12V, the DC50 was determined as 48 nM. For the same compound, the results for the IC50 in the experiment on PA-TU-8902 cells (setting [1]) and in the experiment on AsPC-1 cells (setting [2]) were 63 nM and 68 nM, respectively.
With `CO[C@@H](C)COc1cc(OC2CN(C(=O)C3CN(C)C3)C2)c2cc(C3CC3)c(-c3c(C)c(F)cc4[nH]ncc34)c(OCc3ccc(-c4cn([C@H](C(=O)N5C[C@H](O)C[C@H]5C(=O)N[C@@H](CO)c5ccc(-n6cncn6)cc5)C(C)C)nn4)cc3)c2n1` (atropisomer, axis not shown) [Example 42], the half-maximal degradation concentration (DC50) on RAS G12V is 30 nM. For the same compound, the IC50 in the experiment with PA-TU-8902 cells is 32 nM; with AsPC-1 cells, 10 nM.
